Experimental data reported in ChEMBL document CHEMBL1124634, “Synthesis and antirhinovirus activity of 6-(dimethylamino)-2-(trifluoromethyl)-9-(substituted benzyl)-9H-purines” (J Med Chem, 1989).

Tests used:
[1] = tested on: Human rhinovirus sp.; experiment: Antiviral activity against rhinoviral 29 serotype in a plaque inhibition assay using monolayers of M-HeLa cells; type: functional, organism-based
[2] = tested on: Human rhinovirus sp.; experiment: Antiviral activity against rhinoviral 2 serotype in a plaque inhibition assay using monolayers of M-HeLa cells; type: functional, organism-based
[3] = tested on: Human rhinovirus sp.; experiment: Antiviral activity against rhinoviral 30 serotype in a plaque inhibition assay using monolayers of M-HeLa cells; type: functional, organism-based
[4] = Antiviral activity against rhinoviral 13 serotype in a plaque inhibition assay using monolayers of M-HeLa cells; type: functional, cell-based; conditions: Homo sapiens
[5] = tested on: Human rhinovirus sp.; experiment: Antiviral activity against rhinoviral 14 serotype in a plaque inhibition assay using monolayers of M-HeLa cells; type: functional, organism-based
[6] = tested on: Human rhinovirus sp.; experiment: Antiviral activity against rhinoviral 15 serotype in a plaque inhibition assay using monolayers of M-HeLa cells; type: functional, organism-based
[7] = tested on: Human rhinovirus sp.; experiment: Antiviral activity against rhinoviral 12 serotype in a plaque inhibition assay using monolayers of M-HeLa cells; type: functional, organism-based
[8] = tested on: Human rhinovirus sp.; experiment: Antiviral activity against rhinoviral-18 serotype in a plaque inhibition assay using monolayers of M-HeLa cells; type: functional, organism-based
[9] = tested on: Human rhinovirus sp.; experiment: Antiviral activity against rhinoviral-19 serotype in a plaque inhibition assay using monolayers of M-HeLa cells; type: functional, organism-based
[10] = tested on: Human rhinovirus sp.; experiment: Antiviral activity against rhinoviral-1A serotype in a plaque inhibition assay using monolayers of M-HeLa cells; type: functional, organism-based
[11] = tested on: Human rhinovirus sp.; experiment: Antiviral activity against rhinoviral-1B serotype in a plaque inhibition assay using monolayers of M-HeLa cells; type: functional, organism-based
[12] = Percent inhibitory activity at 2.5 uM against rhinoviral 3 serotype in a plaque inhibition assay using monolayers of M-HeLa cells; type: functional, Homo sapiens
[13] = Percent inhibitory activity at 2.5 uM against rhinoviral 4 serotype in a plaque inhibition assay using monolayers of M-HeLa cells; type: functional, Homo sapiens
[14] = Percent inhibitory activity at 2.5 uM against rhinoviral 8 serotype in a plaque inhibition assay using monolayers of M-HeLa cells; type: functional, Homo sapiens
[15] = tested on: Human rhinovirus sp.; experiment: Percent inhibitory activity at 8 uM against rhinoviral 21 serotype in a plaque inhibition assay using monolayers of M-HeLa cells; type: functional
[16] = tested on: Human rhinovirus sp.; experiment: Percent inhibitory activity at 8 uM against rhinoviral 5 serotype in a plaque inhibition assay using monolayers of M-HeLa cells; type: functional
[17] = tested on: Human rhinovirus sp.; experiment: (§1) Antiviral activity against rhinoviral 9 serotype in a plaque inhibition assay using monolayers of M-HeLa cells; type: functional, organism-based
[18] = tested on: Human rhinovirus sp.; experiment: Antiviral activity against rhinoviral 31 serotype in a plaque inhibition assay using monolayers of M-HeLa cells; type: functional, organism-based
[19] = Percent inhibitory activity at 5 uM against rhinoviral 16 serotype in a plaque inhibition assay using monolayers of M-HeLa cells; type: functional, Homo sapiens
[20] = tested on: Human rhinovirus sp.; experiment: Antiviral activity against rhinoviral 4 serotype in a plaque inhibition assay using monolayers of M-HeLa cells; type: functional, organism-based
[21] = tested on: Human rhinovirus sp.; experiment: Antiviral activity against rhinoviral 8 serotype in a plaque inhibition assay using monolayers of M-HeLa cells; type: functional, organism-based
[22] = tested on: Human rhinovirus sp.; experiment: Antiviral activity against rhinoviral 16 serotype in a plaque inhibition assay using monolayers of M-HeLa cells; type: functional, organism-based
[23] = tested on: Human rhinovirus sp.; experiment: Percent inhibitory activity at 8 uM against rhinoviral 13 serotype in a plaque inhibition assay using monolayers of M-HeLa cells; type: functional
[24] = Percent inhibitory activity at 8 uM against rhinoviral 18 serotype in a plaque inhibition assay using monolayers of M-HeLa cells; type: functional, Homo sapiens
[25] = tested on: Human rhinovirus sp.; experiment: Percent inhibitory activity at 8 uM against rhinoviral 29 serotype in a plaque inhibition assay using monolayers of M-HeLa cells; type: functional
[26] = tested on: Human rhinovirus sp.; experiment: Percent inhibitory activity at 8 uM against rhinoviral 3 serotype in a plaque inhibition assay using monolayers of M-HeLa cells; type: functional
[27] = tested on: Human rhinovirus sp.; experiment: Antiviral activity against rhinoviral 5 serotype in a plaque inhibition assay using monolayers of M-HeLa cells; type: functional, organism-based
[28] = tested on: Human rhinovirus sp.; experiment: Percent inhibitory activity at 8 uM against rhinoviral 30 serotype in a plaque inhibition assay using monolayers of M-HeLa cells; type: functional
[29] = tested on: Human rhinovirus sp.; experiment: Antiviral activity against rhinoviral 3 serotype in a plaque inhibition assay using monolayers of M-HeLa cells; type: functional, organism-based
[30] = as §1; type: functional, cell-based; conditions: Homo sapiens
[31] = tested on: Human rhinovirus sp.; experiment: Percent inhibitory activity at 8 uM against rhinoviral 14 serotype in a plaque inhibition assay using monolayers of M-HeLa cells; type: functional
[32] = tested on: Human rhinovirus sp.; experiment: Percent inhibitory activity at 8 uM against rhinoviral 15 serotype in a plaque inhibition assay using monolayers of M-HeLa cells; type: functional
[33] = Percent inhibitory activity at 8 uM against rhinoviral 8 serotype in a plaque inhibition assay using monolayers of M-HeLa cells; type: functional, Homo sapiens
[34] = Percent inhibitory activity at 8 uM against rhinoviral-18 serotype in a plaque inhibition assay using monolayers of M-HeLa cells; type: functional, Homo sapiens
[35] = Percent inhibitory activity at 8 uM against rhinoviral 2 serotype in a plaque inhibition assay using monolayers of M-HeLa cells; type: functional, Homo sapiens
[36] = tested on: Human rhinovirus sp.; experiment: Antiviral activity against rhinoviral 21 serotype in a plaque inhibition assay using monolayers of M-HeLa cells; type: functional, organism-based
[37] = tested on: Human rhinovirus sp.; experiment: Percent inhibitory activity at 8 uM against rhinoviral 19s erotype in a plaque inhibition assay using monolayers of M-HeLa cells; type: functional
[38] = tested on: Human rhinovirus sp.; experiment: Percent inhibitory activity at 8 uM against rhinoviral 31 serotype in a plaque inhibition assay using monolayers of M-HeLa cells; type: functional
[39] = tested on: Human rhinovirus sp.; experiment: Percent inhibitory activity at 8 uM against rhinoviral 4 serotype in a plaque inhibition assay using monolayers of M-HeLa cells; type: functional
[40] = tested on: Human rhinovirus sp.; experiment: Antiviral activity against rhinoviral 18 serotype in a plaque inhibition assay using monolayers of M-HeLa cells; type: functional, organism-based
[41] = tested on: Human rhinovirus sp.; experiment: Antiviral activity against rhinoviral 19 serotype in a plaque inhibition assay using monolayers of M-HeLa cells; type: functional, organism-based

Row | Structure (SMILES) | IC50 [1] [µM] | IC50 [2] [µM] | IC50 [3] [µM] | IC50 [4] [µM] | IC50 [5] [µM] | IC50 [6] [µM] | IC50 [7] [µM] | IC50 [9] [µM] | IC50 [10] [µM] | IC50 [11] [µM] | IC50 [17] [µM] | IC50 [18] [µM] | IC50 [20] [µM] | IC50 [22] [µM] | IC50 [36] [µM] | Inhibition [15] [%] | Inhibition [16] [%] | Inhibition [23] [%] | Inhibition [28] [%] | Inhibition [33] [%] | other results
1 | COc1ccc(Cn2cnc3c(N(C)C)nc(C(F)(F)F)nc32)cc1C | – | 8 | – | – | 7.5 | 9 | 4.1 | 8.6 | 2.6 | 0.2 | 1.3 | – | 5.5 | 1.9 | – | 16 | – | 12 | 20 | – | IC50 [21]: > 8 µM; Inhibition [24]: 35 µM; Inhibition [25]: 27%; Inhibition [26]: 28%; IC50 [27]: > 8 µM
2 | CN(C)c1nc(C(F)(F)F)nc2c1ncn2Cc1cccc(F)c1 | 2.7 | 15 | – | – | 7.1 | 3.2 | 2.3 | – | 0.57 | 0.03 | 0.3 | – | – | 0.8 | 10 | – | 34 | 30 | 28 | 45 | IC50 [8]: 8 µM; Inhibition [37]: 28%; Inhibition [38]: 43%; Inhibition [26]: 35%; Inhibition [39]: 34%
3 | CN(C)c1ccc(Cn2cnc3c(N(C)C)nc(C(F)(F)F)nc32)cc1 | 4.7 | 11 | – | – | – | – | 4 | – | 1.2 | 0.29 | 4.6 | – | 6.1 | 1.9 | – | 27 | 39 | 45 | 35 | 37 | IC50 [40]: 8.9 µM; Inhibition [31]: 46%; Inhibition [32]: 30%; Inhibition [37]: 23%; Inhibition [38]: 41%

Continued, in another order:

Row | IC50 [1] [µM] | IC50 [2] [µM] | IC50 [3] [µM] | IC50 [4] [µM] | IC50 [5] [µM] | IC50 [6] [µM] | IC50 [7] [µM] | IC50 [9] [µM] | IC50 [10] [µM] | IC50 [11] [µM] | IC50 [17] [µM] | IC50 [18] [µM] | IC50 [20] [µM] | IC50 [22] [µM] | IC50 [36] [µM] | Structure (SMILES) | Inhibition [15] [%] | Inhibition [16] [%] | Inhibition [23] [%] | Inhibition [28] [%] | Inhibition [33] [%] | other results
4 | 4.2 | 5.7 | 2.2 | 2.6 | 1.2 | 1 | 2.6 | 6.7 | 0.1 | 0.03 | 0.35 | 1.2 | – | – | – | Cc1ccc(Cn2cnc3c(N(C)C)nc(C(F)(F)F)nc32)cc1 | 40 | 18 | – | – | – | IC50 [8]: 1.8 µM; Inhibition [12]: 43 µM; Inhibition [13]: 41 µM; Inhibition [14]: 41 µM; Inhibition [19]: 12%
5 | 3 | – | – | 4.2 | – | – | 6 | 9 | 2.3 | 0.5 | – | 4.3 | 8.8 | 2.3 | 9 | CN(C)c1nc(C(F)(F)F)nc2c1ncn2Cc1ccc(S(C)(=O)=O)cc1 | – | 40 | – | 32 | 36 | IC50 [29]: 4.7 µM; IC50 [30]: 3.7 µM; Inhibition [31]: 16%; Inhibition [32]: 47%; Inhibition [34]: 29%; Inhibition [35]: 36%
6 | 2.5 | 6.6 | 6.5 | > 8 | 4.3 | 3.3 | 7.4 | – | 0.73 | 0.03 | 0.9 | 5.3 | 6.1 | – | 7.4 | CN(C)c1nc(C(F)(F)F)nc2c1ncn2Cc1ccc(Cl)cc1 | – | – | – | – | – | IC50 [40]: > 8 µM; IC50 [41]: 6.5 µM; IC50 [29]: 6.9 µM; IC50 [21]: 5.7 µM; IC50 [27]: 8 µM
